Earlier results as cited in article PMC7904233 (Journal of medicinal chemistry, 2020).

Tested on: EBOV Zaire
Conditions: in vivo; cited from earlier work

| Structure (SMILES) | mouse survival [%] |
| --- | --- |
| CN(C)CCOc1ccc(/C(=C(/CCCl)c2ccccc2)c2ccccc2)cc1 [Compound 1, Toremifene] | 50 |
| CCN(CC)CCOc1ccc(C(=C(Cl)c2ccccc2)c2ccccc2)cc1 [clomiphene] | 90 |
